Reference: US8222400B2, “Cyclodextrin compound modified with folic acid, process for production thereof, drug delivery agent for targeting drug delivery system, pharmaceutical composition, and imaging agent” (Nanodex Inc., priority 2007, dated 2012)
Each block holds one compound with its values, some of them ahead of it.

Tests used:
[1] = biological target: T1, folate binding proteins (FBP) (Bos taurus, UniProt P02702); assay: SPR measurement of association with immobilized folate binding protein (FBP); conditions: each at 1.0×10^−6 M, 25.0° C.
T1 construct: purchased SIGMA
Method: Specifically, the ligand (e.g., folate-binding proteins) is immobilized on a cuvette, and the analyte (e.g., the cyclodextrin (CD) compound of the invention) that is dissolved in a buffer solution is injected into the above cuvette. Evanescent wave and surface plasmon wave excite the surface plasmon when the angle of incidence on a prism is […] the angle of total reflection. The angle of incidence is measured. The angle of incidence is changed depending on the mass within the evanescent field depth of 600 nm. The amount of the changes can be observed and refers to the response (R). This angle of incidence is proportional to the mass of the adsorbed molecule. In other words, these mass changes can indicate the interaction. The reagents used for immobilization were obtained as follows: • 1 mM BS^3 solution: 2.9 mg of Bis(sulfosuccinimidyl) suberate (BS^3) was dissolved into 5 ml of 10 mM phosphate buffer solution (pH 7.2); • a solution used for immobilization of FBP: 1 mg of FBP (manufactured by SIGMA) was dissolved into 1 ml of 10 mM phosphate buffer solution (pH 7.2). […] A saturation curve shown in FIG. 1 was obtained (measured at a temperature of 25.0° C.). […] The association characteristics of each compound that bound to FBP were evaluated.

Caco-2 tumor cells = assay: SPR measurement of interaction with immobilized Caco-2 tumor cells; type: binding, human; conditions: SPR linear plot, varied concentrations, Caco-2 cells-immobilized cuvette
Method: The SPR measurements of the exemplary compound 1 that bound to human colon cancer-derived Caco-2 cells and, as comparative target cells, normal rat liver cells were conducted by using the similar foregoing procedures. Each interaction was evaluated comparatively.
Experiment 6-1: The SPR measurements of the interaction with Caco-2 tumor cells The immobilization of Caco-2 cells was performed by the procedures similar to those of Example 5 <Immobilization of FBP>. Instead of using the solution that was used for the immobilization of FBP, the solution containing a suitable amount and concentration of the solution (phosphate buffer solution (pH 7.3)+0.85% NaCl) (manufactured by CORNING) containing Caco-2 cells was used as a fixative. In addition, to the Caco-2 cells-immobilized cuvette was added 200 μl of the exemplary compound 1 ([…]) that was dissolved in the phosphate buffer solution (pH 7.3)+0.85% NaCl. The SPR measurements were then carried out.
Experiment 7-1: The measurements of the interaction with Caco-2 tumor cells The immobilization of Caco-2 cells was performed by the procedures similar to those of Example 5 <Immobilization of FBP>. […]

[2] = SPR measurement of drug-inclusion association with immobilized DXR; type: binding; conditions: SPR linear plot, DXR-immobilized cuvette
Method: The capabilities of the CD compound of the invention were evaluated by the procedures similar to those of Experiment 7-1. An anticancer and antibiotic agent, doxorubicin (hereafter, referred to as “DXR”) was used as a drug.
Immobilization of DXR on the surface of an optical biosensor cuvette was performed by using the procedures similar to those of the above immobilization of FBP. A buffer with a different pH was used as a solvent for drugs.
An aminosilane group on the surface of the cuvette was reacted with a linker. 1 mM of the BS^3 solution/10 mM of phosphate buffer solution (pH 6.5) was used for the reaction. Then, an amino group of DXR was reacted with the other side of BS^3 linker. The steps were repeated one or more times until the response value became constant. An acetic anhydride-acetic acid solution (volume ratio 1:1) was injected into the cuvette to deactivate any remaining aminosilane groups and to block these. After the blocking, the solution was replaced by 10 mM acetic buffer (pH 5.3). The DXR solution (2 mg DXR/10 mM acetic buffer (pH5.3)) was added thereto. The reaction was carried out. […]
The kinetic behavior of the interaction of the exemplary compound 1 with DXR was measured by the procedures similar to those of Experiment 1. […]

[3] = biological target: folate receptor protein (FBP) overexpressed on the surface of cancer cells (Homo sapiens, UniProt P15328); conditions: from reviews (Wang and Low 1998; Low et al. 2008); cited from earlier work
Chain of folate receptor protein (FBP) overexpressed on the surface of cancer cells (P15328 25-234): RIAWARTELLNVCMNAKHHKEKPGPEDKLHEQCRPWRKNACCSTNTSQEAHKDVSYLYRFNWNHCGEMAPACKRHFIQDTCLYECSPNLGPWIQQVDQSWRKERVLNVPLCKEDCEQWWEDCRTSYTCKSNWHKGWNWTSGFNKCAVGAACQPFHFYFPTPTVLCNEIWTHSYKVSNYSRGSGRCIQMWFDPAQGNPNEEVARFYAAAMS

T1 sequence (P02702 20-234): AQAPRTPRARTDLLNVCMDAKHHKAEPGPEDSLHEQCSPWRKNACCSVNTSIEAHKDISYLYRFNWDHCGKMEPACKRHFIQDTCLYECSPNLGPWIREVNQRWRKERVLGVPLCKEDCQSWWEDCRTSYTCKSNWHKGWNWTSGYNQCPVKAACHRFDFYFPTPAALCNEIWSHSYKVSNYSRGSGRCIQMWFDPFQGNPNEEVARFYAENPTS

SMILES: OC[C@H]1O[C@@H]2O[C@H]3[C@H](O)[C@@H](O)[C@@H](O[C@H]4[C@H](O)[C@@H](O)[C@@H](O[C@H]5[C@H](O)[C@@H](O)[C@@H](O[C@H]6[C@H](O)[C@@H](O)[C@@H](O[C@H]7[C@H](O)[C@@H](O)[C@@H](O[C@H]8[C@H](O)[C@@H](O)[C@@H](O[C@H]1[C@H](O)[C@H]2O)O[C@@H]8CO)O[C@@H]7CO)O[C@@H]6CO)O[C@@H]5CO)O[C@@H]4CO)O[C@@H]3CO [unmodified β-CD, β-cyclodextrin]
Interaction with FBP (SPR response, FIG. 1) [1]: did not exhibit any interaction properties

Association constant Ka (receptor Caco-2) (Caco-2 tumor cells): 18000 M⁻¹
SMILES: CNC(=O)CCC(NC(=O)c1ccc(NCc2cnc3nc(N)[nH]c(=O)c3n2)cc1)C(=O)O (stereo not shown) [Comparative Compound 3]
Association constant Ka (drug DXR) [2]: 2500 M⁻¹

SMILES: Nc1nc2ncc(CNc3ccc(C(=O)N[C@@H](CCC(=O)O)C(=O)O)cc3)nc2c(=O)[nH]1 [folic acid]
Association constant for folate receptor protein (FBP) [3]: 10^10 M^−1
